Assay results: BindingDB's records for doi:10.1016/0960-894X(95)00399-E (1995)

How the values were obtained:
[1] = target: Gastrin/cholecystokinin type B receptor (Cavia porcellus); experiment: Binding affinity towards Cholecystokinin type B receptor was measured by displacement of [125I]CCK from guinea pig cortical membranes
[2] = target: Gastrin/cholecystokinin type B receptor (Cavia porcellus); experiment: as above; remark: listed apart in the source

Structure (SMILES)	IC50 [1] [nM]	IC50 [2] [nM]
CN1C(=O)C(NC(=O)Nc2cccc(C(=O)O)c2)N=C(C2CCCCC2)c2ccccc21 (stereo not drawn) [3-[3-(5-Cyclohexyl-1-methyl-2-oxo-2,3-dihydro-1H-benzo[e][1,4]diazepin-3-yl)-ureido]-benzoic acid]	1.4	–
CC(=O)NS(=O)(=O)c1cccc(NC(=O)NC2N=C(C3CCCCC3)c3ccccc3N(C)C2=O)c1 (stereo not drawn) [N-Acetyl-3-[3-(5-cyclohexyl-1-methyl-2-oxo-2,3-dihydro-1H-benzo[e][1,4]diazepin-3-yl)-ureido]-benzenesulfonamide]	0.36	–
CN1C(=O)[C@H](NC(=O)Nc2cccc(C(=O)NS(=O)(=O)c3ccccc3)c2)N=C(C2CCCCC2)c2ccccc21 [N-{3-[3-((R)-5-Cyclohexyl-1-methyl-2-oxo-2,3-dihydro-1H-benzo[e][1,4]diazepin-3-yl)-ureido]-benzoyl}-benzenesulfonamide]	–	0.73
